# Data published in patent US20250230138A1, “COMPOUNDS HAVING A T-STRUCTURE FORMED BY AT LEAST FOUR CYCLES FOR USE IN THE TREATMENT OF CANCER AND OTHER INDICATIONS” (TheRas, Inc., priority 2022, published 2025).
# Assays:
# [1] = molecular target: Cys242 in human PIK3CA (157-299) (Homo sapiens (Human), UniProt P42336); test: Covalent modification assay using MALDI-TOF MS; format: biochemical; details: 4 h reaction time point; 3.33 μM protein target, 1:7.5 protein to compound ratio (compounds 1-852)
# How it was run: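 PIK3CA (157-299), 3.33 or 1 μM in 20 mM HEPES, 150 mM NaCl, 2 mM MgCl2, pH 7.3, was incubated with compound at room temperature in the dark for 15 min, 30 min, 2 h or 4 h. Linear MALDI-TOF read-out; % modification = adduct peak height over summed heights of all protein species.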
# pAKT in BT474 cells = test: Cell-based pAKT HTRF assay in BT474 cells; details: BT474 cells; 4 hr incubation; Compounds 10-999; read-out: pAKT inhibition IC50 in BT474 cells
# How it was run: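 9-pt curve, top 3 μM, 3-fold steps, 0.25% DMSO; 4 hr compound exposure. Lysis, then HTRF with d2/Eu Cryptate antibody pair, 4–24 h RT. Ex 320 nm, Em 615 nm.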
# Cys242 in human PIK3CA (157-299), sequence (P42336 157-299): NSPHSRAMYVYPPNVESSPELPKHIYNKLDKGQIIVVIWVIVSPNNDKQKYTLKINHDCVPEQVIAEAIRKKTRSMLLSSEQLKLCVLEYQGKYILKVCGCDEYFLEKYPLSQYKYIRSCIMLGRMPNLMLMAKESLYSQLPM
SMILES,IC50 (pAKT in BT474 cells) [nM],% of modification [1]
C=CC(=O)N1CCn2nc(-c3nc(-c4cnn(C)c4)c4ccsc4c3-c3c(F)cc(F)cc3OC[C@@H](C)O)cc2[C@H]1C [Compound 753],< 100,A (percent of modification of PIK3CA protein ≥75%)
C=CC(=O)N1Cc2cc(-c3nc(-c4ccc5nn(C)cc5c4)c4ccsc4c3-c3c(F)cc(F)cc3OC[C@@H](C)O)nn2C[C@H]1C [Compound 754],< 100,A (percent of modification of PIK3CA protein ≥75%)
C=CC(=O)N1Cc2cc(-c3nc(-c4ccc5cnn(C)c5c4)c4ccsc4c3-c3c(F)cc(F)cc3OC[C@@H](C)O)nn2C[C@H]1C [Compound 755],< 100,A (percent of modification of PIK3CA protein ≥75%)
C=CC(=O)N1Cc2cc(-c3nc(-c4ccc5c(c4)CNC5=O)c4ccsc4c3-c3c(F)cc(F)cc3OC[C@@H](C)O)nn2C[C@H]1C [Compound 756],< 100,A (percent of modification of PIK3CA protein ≥75%)
C=CC(=O)N1Cc2cc(-c3nc(-c4cnc(C)nc4)c4ccsc4c3-c3c(F)cc(F)cc3OC[C@@H](C)O)nn2C[C@H]1C [Compound 757],< 100,A (percent of modification of PIK3CA protein ≥75%)
"C=CC(=O)N1CCn2nc(-c3nc(-c4ccc5c(cnn5C)c4)c4ccsc4c3-c3c(F)cc(F)cc3OCCOC)cc2[C@H]1C [Compound 758, 1-((R)-2-((S)-7-(2,4-difluoro-6-(2-methoxyethoxy)phenyl)-4-(1-methyl-1H-indazol-5-yl)thieno[3,2-c]pyridin-6-yl)-4-methyl-6,7-dihydropyrazolo[1,5-a]pyrazin-5(4H)-yl)prop-2-en-1-one]",< 100,A (percent of modification of PIK3CA protein ≥75%)
C=CC(=O)N1CCn2nc(-c3nc(-c4ccc5nn(C)cc5c4)c4ccsc4c3-c3c(F)cc(F)cc3OC[C@@H](C)O)cc2[C@H]1C [Compound 760],< 100,A (percent of modification of PIK3CA protein ≥75%)
C=CC(=O)N1CCn2nc(-c3nc(-c4ccc5c(c4)ncn5C)c4ccsc4c3-c3c(F)cc(F)cc3OC[C@@H](C)O)cc2[C@H]1C [Compound 761],< 100,A (percent of modification of PIK3CA protein ≥75%)
C=CC(=O)N1CCn2nc(-c3nc(-c4ccc5c(c4)CNC5=O)c4ccsc4c3-c3c(F)cc(F)cc3OC[C@@H](C)O)cc2[C@H]1C [Compound 762],< 100,A (percent of modification of PIK3CA protein ≥75%)
C=CC(=O)N1CCn2nc(-c3nc(-c4ccc5c(c4)CN(C)C5=O)c4ccsc4c3-c3c(F)cc(F)cc3OC[C@@H](C)O)cc2[C@H]1C [Compound 763],< 100,A (percent of modification of PIK3CA protein ≥75%)
C=CC(=O)N1CCn2nc(-c3nc(-c4cnnc(C)c4)c4ccsc4c3-c3c(F)cc(F)cc3OCCOC)cc2C1C (centres unmarked) [Compound 764],< 100,A (percent of modification of PIK3CA protein ≥75%)
C=CC(=O)N1Cc2cc(-c3nc(-c4ccc5ncn(C)c5c4)c4ccsc4c3-c3c(F)cc(F)cc3OCC(C)O)nn2CC1C (centres unmarked) [Compound 765],< 100,A (percent of modification of PIK3CA protein ≥75%)
C=CC(=O)N1CCn2nc(-c3nc(-c4ccc5cn(C)nc5c4)c4ccsc4c3-c3c(F)cc(F)cc3OCCOC)cc2C1C (centres unmarked) [Compound 766],< 100,A (percent of modification of PIK3CA protein ≥75%)
C=CC(=O)N1CCn2nc(-c3nc(-c4ccc5c(cnn5C)c4)c4ccsc4c3-c3c(F)cc(F)cc3OCC(C)O)cc2C1C (centres unmarked) [Compound 767],< 100,A (percent of modification of PIK3CA protein ≥75%)
C=CC(=O)N1Cc2cc(-c3nc(-c4ccc5c(c4)C(=O)NC5)c4ccsc4c3-c3c(F)cc(F)cc3OCCOC)nn2CC1C (centres unmarked) [Compound 768],< 100,A (percent of modification of PIK3CA protein ≥75%)
C=CC(=O)N1CCn2nc(-c3nc(-c4ccc5cnn(C)c5c4)c4ccsc4c3-c3c(F)cc(F)cc3OCC(C)O)cc2C1C (centres unmarked) [Compound 769],< 100,A (percent of modification of PIK3CA protein ≥75%)
"C=CC(=O)N1CCn2nc(-c3nc(-c4ccc5cn(C)nc5c4)c4ccsc4c3-c3c(F)cc(F)cc3OC[C@@H](C)O)cc2[C@@H]1C [Compound 770, 1-((S)-2-((S)-7-(2,4-difluoro-6-((R)-2-hydroxypropoxy)phenyl)-4-(2-methyl-2H-indazol-6-yl)thieno[3,2-c]pyridin-6-yl)-4-methyl-6,7-dihydropyrazolo[1,5-a]pyrazin-5(4H)-yl)prop-2-en-1-one]",< 100,A (percent of modification of PIK3CA protein ≥75%)
C=CC(=O)N1CCn2nc(-c3nc(-c4cnc(C)nc4)c4ccsc4c3-c3c(F)cc(F)cc3OCC(C)O)cc2C1C (centres unmarked) [Compound 771],< 100,A (percent of modification of PIK3CA protein ≥75%)
C=CC(=O)N1Cc2cc(-c3nc(-c4cnn(C(F)F)c4)c4ccsc4c3-c3c(F)cc(F)cc3OCCOC)nn2CC1C (centres unmarked) [Compound 772],< 100,A (percent of modification of PIK3CA protein ≥75%)
C=CC(=O)N1CCn2nc(-c3nc(-c4ccc5ncn(C)c5c4)c4ccsc4c3-c3c(F)cc(F)cc3OCCO)cc2C1C (centres unmarked) [Compound 773],< 100,A (percent of modification of PIK3CA protein ≥75%)
C=CC(=O)N1CCn2nc(-c3nc(-c4ccc5nn(C)cc5c4)c4ccsc4c3-c3c(F)cc(F)cc3OCCO)cc2[C@H]1C [Compound 774],< 100,A (percent of modification of PIK3CA protein ≥75%)
C=CC(=O)N1CCn2nc(-c3nc(-c4ccc5c(c4)ncn5C)c4ccsc4c3-c3c(F)cc(F)cc3OCCO)cc2[C@H]1C [Compound 775],< 100,A (percent of modification of PIK3CA protein ≥75%)

# Continued, in another order:
IC50 (pAKT in BT474 cells) [nM],SMILES,% of modification [1]
< 100,C=CC(=O)N1CCn2nc(-c3nc(-c4ccc5cnn(C)c5c4)c4ccsc4c3-c3c(F)cc(F)cc3OCCO)cc2[C@H]1C [Compound 776],A (percent of modification of PIK3CA protein ≥75%)
< 100,C=CC(=O)N1CCn2nc(-c3nc(-c4cn(C)cn4)c4ccsc4c3-c3c(F)cc(F)cc3OCCOC)cc2[C@@H]1C [Compound 777],A (percent of modification of PIK3CA protein ≥75%)
< 100,C=CC(=O)N1Cc2cc(-c3nc(-c4ccc5c(c4)NC(=O)C5)c4ccsc4c3-c3c(F)cc(F)cc3OCCOC)nn2C[C@H]1C [Compound 779],A (percent of modification of PIK3CA protein ≥75%)
< 100,C=CC(=O)N1CCn2nc(-c3nc(-c4ccc5cn(C)nc5c4)c4ccsc4c3-c3c(F)cc(F)cc3OCCO)cc2[C@@H]1C [Compound 780],A (percent of modification of PIK3CA protein ≥75%)
< 100,C=CC(=O)N1CCn2nc(-c3nc(-c4cn(C)cn4)c4ccsc4c3-c3c(F)cc(F)cc3OCCO)cc2[C@@H]1C [Compound 781],A (percent of modification of PIK3CA protein ≥75%)
< 100,C=CC(=O)N1Cc2cc(-c3nc(-c4ccc5cn(C)nc5c4)c4ccsc4c3-c3c(F)cc(F)cc3OCCO)nn2C(C)C1 (centres unmarked) [Compound 783],A (percent of modification of PIK3CA protein ≥75%)
< 100,C=CC(=O)N1Cc2cc(-c3nc(-c4cnc(C)nc4)c4ccsc4c3-c3c(F)cc(F)cc3OCCO)nn2C(C)C1 (centres unmarked) [Compound 785],A (percent of modification of PIK3CA protein ≥75%)
< 100,C=CC(=O)N1CCn2nc(-c3nc(-c4cn(C)cn4)c4ccsc4c3-c3c(F)cc(F)cc3OCCO)cc2C1C (centres unmarked) [Compound 786],A (percent of modification of PIK3CA protein ≥75%)
100 to 1000,C=CC(=O)N1Cc2cc(-c3nc(-c4cnnc(C)c4)c4ccsc4c3-c3c(F)cc(F)cc3OCCO)nn2C(C)C1 (centres unmarked) [Compound 787],D (percent of modification <25%)
< 100,C=CC(=O)N1Cc2cc(-c3nc(-c4cnnc(C)c4)c4ccsc4c3-c3c(F)cc(F)cc3OCCO)nn2C(C)C1 (centres unmarked) [Compound 788],A (percent of modification of PIK3CA protein ≥75%)
< 100,C=CC(=O)N1CCn2nc(-c3nc(-c4ccc5oc(C)nc5c4)c4ccsc4c3-c3c(F)cc(F)cc3OCCO)cc2C1C (centres unmarked) [Compound 789],A (percent of modification of PIK3CA protein ≥75%)
< 100,C=CC(=O)N1CCn2nc(-c3nc(-c4cnnc(C)c4)c4ccsc4c3-c3c(F)cc(F)cc3OCCOC)cc2C1C (centres unmarked) [Compound 790],A (percent of modification of PIK3CA protein ≥75%)
< 100,C=CC(=O)N1CCn2nc(-c3nc(-c4cnc(C)nc4)c4ccsc4c3-c3c(F)cc(F)cc3OCC(C)O)cc2C1C (centres unmarked) [Compound 791],A (percent of modification of PIK3CA protein ≥75%)
< 100,C=CC(=O)N1CCn2nc(-c3nc(-c4cnc(C)nc4)c4ccsc4c3-c3c(F)cc(F)cc3OCCOC)cc2C1C (centres unmarked) [Compound 792],A (percent of modification of PIK3CA protein ≥75%)
< 100,C=CC(=O)N1Cc2cc(-c3nc(-c4cnn(C)c(=O)c4)c4ccsc4c3-c3c(F)cc(F)cc3OCCOC)nn2C[C@H]1C [Compound 793],A (percent of modification of PIK3CA protein ≥75%)
